# Source: ChEMBL document CHEMBL3885881, “DrugMatrix”
# Organism: Rattus norvegicus
# Experiment: DrugMatrix - Regimen: Daily Repeat
# Format: toxicity, organism-based, Sprague-Dawley
# Design: regimen Daily Repeat, gender Male, age 6-8 weeks
# Conditions: in vivo, ip, route intraperitoneal, vehicle 100 % SALINE; for ABSOLUTE BASOPHIL / ABSOLUTE EOSINOPHIL / ABSOLUTE LYMPHOCYTE / ABSOLUTE MONOCYTE / ABSOLUTE SEGMENTED NEUTROPHIL / BASOPHIL / EOSINOPHIL / ERYTHROCYTE COUNT / HEMATOCRIT / HEMOGLOBIN / LEUKOCYTE COUNT / LYMPHOCYTE / MEAN CORPUSCULAR HEMOGLOBIN / MEAN CORPUSCULAR HEMOGLOBIN CONCENTRATION / MEAN CORPUSCULAR VOLUME / MONOCYTE / NEUTROPHIL / PLATELET COUNT: tissue Blood; for ALANINE AMINOTRANSFERASE / ALBUMIN / ALKALINE PHOSPHATASE / ASPARTATE AMINOTRANSFERASE / BLOOD UREA NITROGEN / CHLORIDE / CHOLESTEROL / CREATININE / GLUCOSE / LACTATE DEHYDROGENASE / LIPASE / PHOSPHORUS / POTASSIUM / SODIUM / TOTAL BILIRUBIN / TOTAL PROTEIN / URIC ACID / CREATINE PHOSPHOKINASE: tissue Plasma
# [1] = 0 mg/kg, 120 h, dose level Control, time 5 day
# [2] = 0 mg/kg, […], dose level Control, time 14 day
# [3] = 0 mg/kg, […], dose level Control, time 28 day
# [4] = 160 mg/kg, 120 h, dose level High, time 5 day
structure (smiles),measurement,setting,value
NCC[C@H](O)C(=O)N[C@@H]1C[C@H](N)[C@@H](O[C@H]2O[C@H](CN)[C@@H](O)[C@H](O)[C@H]2O)[C@H](O)[C@H]1O[C@H]1O[C@H](CO)[C@@H](O)[C@H](N)[C@H]1O [AMIKACIN],ABSOLUTE BASOPHIL,[1],32 cells/µL
same,ABSOLUTE EOSINOPHIL,[1],110 cells/µL
same,ABSOLUTE LYMPHOCYTE,[1],6630 cells/µL
same,ABSOLUTE MONOCYTE,[1],140 cells/µL
same,ABSOLUTE SEGMENTED NEUTROPHIL,[1],1170 cells/µL
same,BASOPHIL,[1],0.38%
same,EOSINOPHIL,[1],1.28%
same,ERYTHROCYTE COUNT,[1],7.45 x10E6/uL
same,HEMATOCRIT,[1],45.74%
same,HEMOGLOBIN,[1],14.72 G/DL
same,LEUKOCYTE COUNT,[1],8.11 x10E3/uL
same,LYMPHOCYTE,[1],81.3%
same,MEAN CORPUSCULAR HEMOGLOBIN,[1],19.76 pg
same,MEAN CORPUSCULAR HEMOGLOBIN CONCENTRATION,[1],32.16 G/DL
same,MEAN CORPUSCULAR VOLUME,[1],61.38 fL
same,MONOCYTE,[1],1.76%
same,NEUTROPHIL,[1],14.9%
same,PLATELET COUNT,[1],1322.4 x10E3/uL
same,ALANINE AMINOTRANSFERASE,[1],25.8 u/L
same,ALBUMIN,[1],3.64 G/DL
same,ALKALINE PHOSPHATASE,[1],233.6 u/L
same,ASPARTATE AMINOTRANSFERASE,[1],81.4 u/L
same,BLOOD UREA NITROGEN,[1],14.4 mg/dL
same,CHLORIDE,[1],105.6 MEQ/L
same,CHOLESTEROL,[1],69.2 mg/dL
same,CREATININE,[1],0.56 mg/dL
same,GLUCOSE,[1],125.4 mg/dL
same,LACTATE DEHYDROGENASE,[1],105.4 u/L
same,LIPASE,[1],22.4 u/L
same,PHOSPHORUS,[1],11.48 mg/dL
same,POTASSIUM,[1],5.52 MEQ/L
same,SODIUM,[1],147 MEQ/L
same,TOTAL BILIRUBIN,[1],0.2 mg/dL
same,TOTAL PROTEIN,[1],6.1 G/DL
same,URIC ACID,[1],1.06 mg/dL
same,ABSOLUTE BASOPHIL,[2],130 cells/µL
same,ABSOLUTE EOSINOPHIL,[2],140 cells/µL
same,ABSOLUTE LYMPHOCYTE,[2],13500 cells/µL
same,ABSOLUTE MONOCYTE,[2],400 cells/µL
same,ABSOLUTE SEGMENTED NEUTROPHIL,[2],2330 cells/µL
same,BASOPHIL,[2],0.72%
same,EOSINOPHIL,[2],0.86%
same,ERYTHROCYTE COUNT,[2],7.74 x10E6/uL
same,HEMATOCRIT,[2],45.98%
same,HEMOGLOBIN,[2],13.86 G/DL
same,LEUKOCYTE COUNT,[2],16.61 x10E3/uL
same,LYMPHOCYTE,[2],81.34%
same,MEAN CORPUSCULAR HEMOGLOBIN,[2],18 pg
same,MEAN CORPUSCULAR HEMOGLOBIN CONCENTRATION,[2],30.22 G/DL
same,MEAN CORPUSCULAR VOLUME,[2],59.4 fL
same,MONOCYTE,[2],2.46%
same,NEUTROPHIL,[2],14.14%
same,PLATELET COUNT,[2],1445.5 x10E3/uL
same,ABSOLUTE BASOPHIL,[3],91 cells/µL
same,ABSOLUTE EOSINOPHIL,[3],110 cells/µL
same,ABSOLUTE LYMPHOCYTE,[3],9910 cells/µL
same,ABSOLUTE MONOCYTE,[3],210 cells/µL
same,ABSOLUTE SEGMENTED NEUTROPHIL,[3],1560 cells/µL
same,BASOPHIL,[3],0.77%
same,EOSINOPHIL,[3],0.92%
same,ERYTHROCYTE COUNT,[3],8.21 x10E6/uL
same,HEMATOCRIT,[3],47.53%
same,HEMOGLOBIN,[3],15.65 G/DL
same,LEUKOCYTE COUNT,[3],11.91 x10E3/uL
same,LYMPHOCYTE,[3],83.34%
same,MEAN CORPUSCULAR HEMOGLOBIN,[3],19.07 pg
same,MEAN CORPUSCULAR HEMOGLOBIN CONCENTRATION,[3],32.93 G/DL
same,MEAN CORPUSCULAR VOLUME,[3],57.9 fL
same,MONOCYTE,[3],1.68%
same,NEUTROPHIL,[3],12.97%
same,PLATELET COUNT,[3],1323.8 x10E3/uL
same,ALANINE AMINOTRANSFERASE,[2],31.6 u/L
same,ALBUMIN,[2],3.66 G/DL
same,ALKALINE PHOSPHATASE,[2],228.6 u/L
same,ASPARTATE AMINOTRANSFERASE,[2],79.6 u/L
same,BLOOD UREA NITROGEN,[2],11.2 mg/dL
same,CHLORIDE,[2],107 MEQ/L
same,CHOLESTEROL,[2],57 mg/dL
same,CREATINE PHOSPHOKINASE,[2],233.6 u/L
same,CREATININE,[2],0.5 mg/dL
same,GLUCOSE,[2],124.4 mg/dL
same,LACTATE DEHYDROGENASE,[2],106.4 u/L
same,LIPASE,[2],24.4 u/L
same,PHOSPHORUS,[2],10.52 mg/dL
same,POTASSIUM,[2],6.34 MEQ/L
same,SODIUM,[2],149.2 MEQ/L
same,TOTAL BILIRUBIN,[2],0.2 mg/dL
same,TOTAL PROTEIN,[2],6.48 G/DL
same,URIC ACID,[2],0.94 mg/dL
same,ALANINE AMINOTRANSFERASE,[3],30 u/L
same,ALBUMIN,[3],3.71 G/DL
same,ALKALINE PHOSPHATASE,[3],186.8 u/L
same,ASPARTATE AMINOTRANSFERASE,[3],78.2 u/L
same,BLOOD UREA NITROGEN,[3],14.2 mg/dL
same,CHLORIDE,[3],105.4 MEQ/L
same,CHOLESTEROL,[3],44.9 mg/dL
same,CREATINE PHOSPHOKINASE,[3],334.3 u/L
same,CREATININE,[3],0.6 mg/dL
same,GLUCOSE,[3],147.2 mg/dL
same,LACTATE DEHYDROGENASE,[3],123.1 u/L
same,LIPASE,[3],9.6 u/L
same,PHOSPHORUS,[3],10.01 mg/dL
same,POTASSIUM,[3],6.57 MEQ/L
same,SODIUM,[3],149.5 MEQ/L
same,TOTAL BILIRUBIN,[3],0.21 mg/dL
same,TOTAL PROTEIN,[3],6.66 G/DL
same,URIC ACID,[3],1.26 mg/dL
same,ABSOLUTE BASOPHIL,[4],42 cells/µL
same,ABSOLUTE EOSINOPHIL,[4],76 cells/µL
same,ABSOLUTE LYMPHOCYTE,[4],7260 cells/µL
